Test results published in PubChem BioAssay AID248 (DTP/NCI, 2004).
“And” between values parts separate entries of the source, which are not always exact repeats. Identical values can stand only once. Toxic doses and inconclusive results are not listed.

Test system: L1210 leukemia ip in BDF1 mice, survival T/C
Assay: NCI In Vivo Anticancer Drug Screen. Data for tumor model L1210 Leukemia (intraperitoneal) in B6D2F1 (BDF1) mice
Details: endpoint: mean survival time, higher = longer survival
Outline: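 In this screen, tumor-bearing mice given compound are compared to those given vehicle, and their survival values are reported as a treated-to-control quotient.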

[1] = dose: 100.0 mg/kg/injection, schedule: Q04DX003 (ip), vehicle: Klucel (hydroxypropylcellulose) (HPC)
[2] = dose: 200.0 mg/kg/injection, schedule: Q04DX003 (ip), vehicle: Klucel (hydroxypropylcellulose) (HPC)
[3] = dose: 400.0 mg/kg/injection, schedule: Q04DX003 (ip), vehicle: Klucel (hydroxypropylcellulose) (HPC)
[4] = dose: 100.0 mg/kg/injection, schedule: Q01DX001 (ip), vehicle: carboxymethylcellulose (CMC)
[5] = dose: 200.0 mg/kg/injection, schedule: Q01DX001 (ip), vehicle: carboxymethylcellulose (CMC)
[6] = dose: 400.0 mg/kg/injection, schedule: Q01DX001 (ip), vehicle: carboxymethylcellulose (CMC)
[7] = dose: 100.0 mg/kg/injection, schedule: Q01DX009 (ip), vehicle: Klucel (hydroxypropylcellulose) (HPC)
[8] = dose: 200.0 mg/kg/injection, schedule: Q01DX009 (ip), vehicle: Klucel (hydroxypropylcellulose) (HPC)
[9] = dose: 400.0 mg/kg/injection, schedule: Q01DX009 (ip), vehicle: Klucel (hydroxypropylcellulose) (HPC)

SMILES: NC(CSCCc1ccc2ccccc2n1)C(=O)O (stereo not drawn)
- T/C [1]: 100 % of control
- T/C [2]: 95 % of control
- T/C [3]: 99 % of control

SMILES: Clc1ccc(N=NNc2ccc(Cl)cc2)cc1
- T/C (dose: 100.0 mg/kg/injection, schedule: Q01DX009 (ip), vehicle: saline with Tween-80): 91 % of control
- T/C (dose: 100.0 mg/kg/injection, schedule: Q04DX003 (ip), vehicle: saline with Tween-80): 96 % of control
- T/C (dose: 200.0 mg/kg/injection, schedule: Q01DX009 (ip), vehicle: saline with Tween-80): 92 % of control
- T/C (dose: 200.0 mg/kg/injection, schedule: Q04DX003 (ip), vehicle: saline with Tween-80): 105 % of control
- T/C (dose: 400.0 mg/kg/injection, schedule: Q01DX009 (ip), vehicle: saline with Tween-80): 92 % of control
- T/C (dose: 400.0 mg/kg/injection, schedule: Q04DX003 (ip), vehicle: saline with Tween-80): 92 % of control

SMILES: COC(=O)c1c2c(nc3ccccc13)-c1ccccc1C(C)(C)C2OC (stereo not drawn)
- T/C [1]: 113 % of control
- T/C [2]: 102 % of control
- T/C [3]: 101 % of control

SMILES: O=Nc1c(O)ccc2ncccc12
- T/C (dose: 75.0 mg/kg/injection, schedule: Q01DX001 (ip), vehicle: other): 104 % of control
- T/C (dose: 150.0 mg/kg/injection, schedule: Q01DX001 (ip), vehicle: other): 104 % of control

SMILES: COc1ccccc1CN1CCCN(Cc2ccccc2OC)C1c1ccc(N(CCCl)CCCl)cc1
- T/C (dose: 50.0 mg/kg/injection, schedule: Q01DX001 (ip), vehicle: carboxymethylcellulose (CMC)): 115 % of control
- T/C [4]: 104 % of control
- T/C [5]: 104 % of control
- T/C [6]: 104 % of control

SMILES: CCC1=C(c2ccc(OC)cc2)C(C)Oc2cc(OC(C)=O)ccc21 (stereo not drawn)
- T/C (dose: 50.0 mg/kg/injection, schedule: Q01DX001 (sc), vehicle: steriod suspending solution): 101 % of control
- T/C (dose: 100.0 mg/kg/injection, schedule: Q01DX001 (sc), vehicle: steriod suspending solution): 101 % of control
- T/C (dose: 200.0 mg/kg/injection, schedule: Q01DX001 (sc), vehicle: steriod suspending solution): 97 % of control
- T/C (dose: 400.0 mg/kg/injection, schedule: Q01DX001 (sc), vehicle: steriod suspending solution): 103 % of control

SMILES: O=C(O)c1c(F)c(F)c(Br)c(F)c1F
- T/C (dose: 25.6 mg/kg/injection, schedule: Q04DX002 (ip), vehicle: saline with Tween-80): 168 % of control
- T/C (dose: 64.0 mg/kg/injection, schedule: Q04DX002 (ip), vehicle: saline with Tween-80): 91 % of control
- T/C (dose: 160.0 mg/kg/injection, schedule: Q04DX002 (ip), vehicle: saline with Tween-80): 94 % of control
- T/C (dose: 400.0 mg/kg/injection, schedule: Q04DX002 (ip), vehicle: saline with Tween-80): 94 % of control

SMILES: Nc1ncnc2c(-c3ccccc3)c[nH]c12
- T/C (dose: 100.0 mg/kg/injection, schedule: Q01DX001 (ip), vehicle: Klucel (hydroxypropylcellulose) (HPC)): 102 % of control
- T/C [1]: 100 % of control
- T/C (dose: 200.0 mg/kg/injection, schedule: Q01DX001 (ip), vehicle: Klucel (hydroxypropylcellulose) (HPC)): 97 % of control
- T/C [2]: 100 % of control
- T/C (dose: 400.0 mg/kg/injection, schedule: Q01DX001 (ip), vehicle: Klucel (hydroxypropylcellulose) (HPC)): 91 % of control
- T/C [3]: 104 % of control

SMILES: Cc1cc(/C=N/Nc2ccc3cccc(O)c3n2)c(O)c2ncccc12
- T/C [5]: 93 % of control

SMILES: CCC1(O)CC(OC2CC(N(C)C)C(OC3CC(O)C(OC4CC(O)C(O)C(C)O4)C(C)O3)C(C)O2)c2c(cc3c(c2O)C(=O)c2c(O)ccc(O)c2C3=O)C1C(=O)OC (stereo not drawn)
- T/C (dose: 1.6 mg/kg/injection, schedule: Q01DX001 (ip), vehicle: saline): 98 % of control
- T/C (dose: 3.2 mg/kg/injection, schedule: Q01DX001 (ip), vehicle: saline): 117 % of control
- T/C (dose: 6.4 mg/kg/injection, schedule: Q01DX001 (ip), vehicle: saline): 108 % of control
- T/C (dose: 12.8 mg/kg/injection, schedule: Q01DX001 (ip), vehicle: saline): 124 % of control

SMILES: OC(COc1c(Cl)c(Cl)c(Cl)c(Cl)c1Cl)CN1CCN(c2ccccc2Cl)CC1 (stereo not drawn)
- T/C (dose: 100.0 mg/kg/injection, schedule: Q01DX001 (ip), vehicle: saline): 95 % of control
- T/C (dose: 200.0 mg/kg/injection, schedule: Q01DX001 (ip), vehicle: saline): 92 % of control
- T/C (dose: 400.0 mg/kg/injection, schedule: Q01DX001 (ip), vehicle: saline): 92 % of control

SMILES: O=C1C=C(O)C(c2ccccc2)=CC1=O
- T/C (dose: 100.0 mg/kg/injection, schedule: Q01DX001 (ip), vehicle: water): 104 % of control
- T/C (dose: 200.0 mg/kg/injection, schedule: Q01DX001 (ip), vehicle: water): 119 % of control

SMILES: CCOC(=O)C1(C(=O)OCC)CC(C)C(=O)N1c1ccccc1OC (stereo not drawn)
- T/C (dose: 100.0 mg/kg/injection, schedule: Q04DX002 (ip), vehicle: Klucel (hydroxypropylcellulose) (HPC)): 100 % of control
- T/C (dose: 200.0 mg/kg/injection, schedule: Q04DX002 (ip), vehicle: Klucel (hydroxypropylcellulose) (HPC)): 89 % of control
- T/C (dose: 400.0 mg/kg/injection, schedule: Q04DX002 (ip), vehicle: Klucel (hydroxypropylcellulose) (HPC)): 100 % of control

SMILES: O=S(/C=C/c1ccccc1)c1ccc(Br)cc1 (stereo not drawn)
- T/C (dose: 100.0 mg/kg/injection, schedule: Q04DX003 (ip), vehicle: saline): 100 % of control
- T/C (dose: 200.0 mg/kg/injection, schedule: Q04DX003 (ip), vehicle: saline): 93 % of control
- T/C (dose: 400.0 mg/kg/injection, schedule: Q04DX003 (ip), vehicle: saline): 100 % of control

SMILES: CSc1ccc2c(c1)N(CCC1CCCCN1C)c1ccccc1S2 (stereo not drawn)
- T/C (dose: 0.78 mg/kg/injection, schedule: Q01DX009 (ip), vehicle: saline): 101 % of control
- T/C (dose: 1.56 mg/kg/injection, schedule: Q01DX009 (ip), vehicle: saline): 103 % of control
- T/C (dose: 3.12 mg/kg/injection, schedule: Q01DX009 (ip), vehicle: saline): 94 % of control and 98 % of control
- T/C (dose: 6.25 mg/kg/injection, schedule: Q01DX009 (ip), vehicle: saline): 94 % of control and 101 % of control
- T/C (dose: 12.5 mg/kg/injection, schedule: Q01DX009 (ip), vehicle: saline): 98 % of control and 116 % of control
- T/C (dose: 25.0 mg/kg/injection, schedule: Q04DX003 (ip), vehicle: saline): 103 % of control
- T/C (dose: 50.0 mg/kg/injection, schedule: Q04DX003 (ip), vehicle: saline): 92 % of control

SMILES: CCOC(=O)c1cc(Cl)c(N)c(Cl)c1
- T/C [7]: 93 % of control
- T/C [8]: 90 % of control
- T/C [9]: 100 % of control

SMILES: Clc1ccc(/C=N/N2CCN(/N=C/c3ccc(Cl)cc3)CC2)cc1
- T/C [4]: 96 % of control
- T/C [5]: 96 % of control
- T/C [6]: 96 % of control

SMILES: Cc1cccc(C)[n+]1CC(=O)CCCCCCC(=O)C[n+]1c(C)cccc1C
- T/C (dose: 0.25 mg/kg/injection, schedule: Q04DX003 (ip), vehicle: saline): 98 % of control
- T/C (dose: 0.5 mg/kg/injection, schedule: Q04DX003 (ip), vehicle: saline): 105 % of control
- T/C (dose: 1.0 mg/kg/injection, schedule: Q04DX003 (ip), vehicle: saline): 101 % of control

SMILES: Nc1ccc(OCCNC(=O)c2ccc(S(=O)(=O)F)cc2)c(Cl)c1
- T/C (dose: 100.0 mg/kg/injection, schedule: Q01DX001 (ip), vehicle: saline with Tween-80): 94 % of control
- T/C (dose: 200.0 mg/kg/injection, schedule: Q01DX001 (ip), vehicle: saline with Tween-80): 89 % of control
- T/C (dose: 400.0 mg/kg/injection, schedule: Q01DX001 (ip), vehicle: saline with Tween-80): 96 % of control

SMILES: COc1c(C(C)(C)C)cc([N+](=O)[O-])c(C)c1[N+](=O)[O-]
- T/C [7]: 98 % of control
- T/C [1]: 103 % of control
- T/C [8]: 103 % of control
- T/C [2]: 102 % of control
- T/C [9]: 96 % of control
- T/C [3]: 94 % of control

SMILES: O=C(NC1CCCCC1)Oc1c(Cl)cc(Cl)c(Cl)c1[N+](=O)[O-]
- T/C (dose: 25.0 mg/kg/injection, schedule: Q04DX002 (ip), vehicle: saline with Tween-80): 92 % of control
- T/C (dose: 50.0 mg/kg/injection, schedule: Q04DX002 (ip), vehicle: saline with Tween-80): 99 % of control
- T/C (dose: 100.0 mg/kg/injection, schedule: Q04DX002 (ip), vehicle: saline with Tween-80): 99 % of control and 114 % of control

SMILES: NC(=O)c1cccs1
- T/C (dose: 5.0 mg/kg/injection, schedule: Q01DX001 (ip), vehicle: saline): 98 % of control
- T/C (dose: 10.0 mg/kg/injection, schedule: Q01DX001 (ip), vehicle: saline): 98 % of control
- T/C (dose: 20.0 mg/kg/injection, schedule: Q01DX001 (ip), vehicle: saline): 98 % of control
- T/C (dose: 40.0 mg/kg/injection, schedule: Q01DX001 (ip), vehicle: saline): 102 % of control

SMILES: CN=NC(C)(c1ccc(Cl)cc1)C(C)(N=NC)c1ccc(Cl)cc1 (stereo not drawn)
- T/C (dose: 17.5 mg/kg/injection, schedule: Q01DX009 (ip), vehicle: Klucel (hydroxypropylcellulose) (HPC)): 92 % of control
- T/C (dose: 35.0 mg/kg/injection, schedule: Q01DX009 (ip), vehicle: Klucel (hydroxypropylcellulose) (HPC)): 103 % of control
- T/C (dose: 70.0 mg/kg/injection, schedule: Q01DX009 (ip), vehicle: Klucel (hydroxypropylcellulose) (HPC)): 100 % of control
